A short description of experiment [1]: Inhibition of hemozoin formation in 8 M acetate buffer at pH 5 after 18 hrs by microtiter plate-based high-throughput assay. The experiment is classed as functional.
Experiment [2] can be described thus: Inhibition of hemozoin formation in 0.5 M acetate buffer at pH 4.8 after 24 hrs by microtiter plate-based high-throughput assay. The experiment is classed as functional.
Experiment [3] can be described thus: Inhibition of hemozoin formation in parasite digestive vacuole extract by microtiter plate-based high-throughput assay. The format is functional.
Experiment [4] is described as follows: Inhibition of hemozoin formation in 9.7 M acetate buffer at pH 4.8 at 60 degC after 2 hrs by microtiter-based high-throughput assay. The format is functional.
Experiment [5] is described as follows: Inhibition of hemozoin formation in 0.5 M acetate buffer at pH 4.8 after 12 hrs by tube-based high-throughput assay. The experiment is classed as functional.
Experiment [6] is described as follows: Inhibition of hemozoin formation in 0.5 M acetate buffer at pH 4.8 after 12 hrs by microtiter plate-based high-throughput assay in presence of trophozoite lysate. The format is functional.
Experiment [7] is described as follows: Inhibition of hemozoin formation by microtiter plate-based high-throughput assay. The experiment is classed as functional.
Experiment [8] can be described thus: Inhibition of hemozoin formation in acetonitrile trophozoite extract by microtiter plate-based high-throughput assay. The format is functional.
Experiment [9] can be described thus: Inhibition of hemozoin formation in 12.9 M acetate buffer at pH 4.5 at 60 degC after 1 hr by microtiter-based high-throughput assay. The experiment is classed as functional.
A short description of experiment [10]: Inhibition of hemozoin formation in 0.5 M acetate buffer at pH 4.8 after 16 hrs by tube-based high-throughput assay in presence of 0.002 mg/mL phosphatidylcholine. The experiment is classed as functional.
Experiment [11] in a line: Inhibition of hemozoin formation in 0.1 M acetate buffer at pH 4.8 after 12 hrs by tube-based high-throughput assay in presence of Plasmodium yoelii homogenate. The format is functional, tissue-based.

The source of these data is ChEMBL document CHEMBL2396545, “Quinoline drug-heme interactions and implications for antimalarial cytostatic versus cytocidal activities” (J Med Chem, 2013).

As usually defined, the IC50 is the concentration that inhibits the measured activity by half.

With `OC(c1cc(C(F)(F)F)nc2c(C(F)(F)F)cccc12)C1CCCCN1` (configuration not stated) [MEFLOQUINE], the half-inhibitory concentration (IC50) in experiment [1] stood at 6.18 µM; in experiment [2] it was 120 µM; in experiment [3], 80 µM; in [4], 476 µM; in [5], 46.9 µM; in [6] it was 200 µM. Further, the values for the IC50 in experiment [7], in experiment [8] and in [9] were 120 µM, 140 µM and 2.9 µM, respectively.
Turning to `C=C[C@H]1CN2CC[C@H]1C[C@H]2[C@H](O)c1ccnc2ccc(OC)cc12` [QUININE], the IC50 was found to be 160 µM in experiment [2]; 201 µM in experiment [10]; 100 µM in experiment [3]; 41.6 µM in experiment [11]; 64.8 µM in experiment [5]; 430 µM in experiment [6]. The results for the IC50 in experiment [7], in experiment [8] and in experiment [9] were 160 µM, 78 µM and 3.5 µM, respectively.
As to `CCN(CC)Cc1cc(Nc2ccnc3cc(Cl)ccc23)ccc1O`, the half-maximal inhibitory concentration (IC50) in [1] worked out at 0.85 µM; in experiment [2] it was 60 µM; in experiment [3], 60 µM; in experiment [4], 67 µM; in [5] it was 15.1 µM; in experiment [6], 203 µM. The IC50 is 60 µM in [7], 73 µM in experiment [8] and 1.45 µM in experiment [9].
On to `CCN(CC)CCCC(C)Nc1ccnc2cc(Cl)ccc12` (configuration not stated) [CHLOROQUINE], for which the half-maximal inhibitory concentration (IC50) in experiment [1] came out at 1.63 µM; in [2], 45 µM; in experiment [10], 117 µM; in experiment [3], 50 µM; in experiment [4], 374 µM; in experiment [11] it was 43.8 µM. Also, the IC50 in experiment [5] was 24.4 µM; in experiment [6] it was 400 µM; in [7], 45 µM; in experiment [9], 1.91 µM.
